From PubChem BioAssay (NCI)
Several values for one entry are separate records, joined by “and”; a condition that tells them apart may be missing. Equal values may be shown once.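 Five concentrations, 48 hours, 96-well plates. GI50 = concentration required for 50% inhibition of growth. Definition used: TGI = concentration required for complete inhibition of growth.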

How the values were obtained:
Experiment in all cases: DTP human tumour cell line panel, 48 h
DU-145 prostate = test system: DU-145 prostate
COLO 205 colon = test system: COLO 205 colon
CAKI-1 renal = test system: CAKI-1 renal
LOX IMVI melanoma = test system: LOX IMVI melanoma
U251 CNS = test system: U251 CNS
SW-620 colon = test system: SW-620 colon
KM12 colon = test system: KM12 colon
OVCAR-4 ovarian = test system: OVCAR-4 ovarian
SK-MEL-5 melanoma = test system: SK-MEL-5 melanoma
EKVX NSCLC = test system: EKVX NSCLC

Row | SMILES | GI50 (DU-145 prostate) [µM] | TGI (DU-145 prostate) [µM] | GI50 (COLO 205 colon) [µM] | TGI (COLO 205 colon) [µM] | GI50 (CAKI-1 renal) [µM] | TGI (CAKI-1 renal) | GI50 (LOX IMVI melanoma) [µM] | TGI (LOX IMVI melanoma) [µM] | GI50 (U251 CNS) [µM] | TGI (U251 CNS) [µM] | GI50 (SW-620 colon) [µM] | TGI (SW-620 colon) [µM] | GI50 (KM12 colon) [µM] | TGI (KM12 colon) [µM] | GI50 (OVCAR-4 ovarian) [µM] | TGI (OVCAR-4 ovarian) [µM] | GI50 (SK-MEL-5 melanoma) [µM] | TGI (SK-MEL-5 melanoma) [µM] | GI50 (EKVX NSCLC) [µM] | TGI (EKVX NSCLC)
1 | ClCCn1cnc2c(SCc3ccccc3)ncnc21 | 3.82 | > 100 | 1.79 | > 100 | 8.86 | > 100 µM | 0.534 | 18.6 | 0.623 | > 100 | 3.14 | > 100 | 1.04 | > 100 | 19.8 | > 100 | 0.79 | > 100 | 18.3 | > 100 µM
2 | O=C(O)c1nnsc1COCc1ccccc1 | – | > 100 | – | > 100 | – | > 100 µM | – | > 100 | – | > 100 | – | > 100 | – | > 100 | – | > 100 | – | > 100 | – | > 100 µM
3 | O=S(=O)(O)c1ccc2cc(N=Nc3cc(S(=O)(=O)O)c4cccnc4c3O)ccc2c1 | – | > 100 | – | > 100 | – | > 100 µM | – | > 100 | – | > 100 | – | > 100 | – | > 100 | – | > 100 | – | > 100 | – | > 100 µM
4 | O=Nc1c2cccnc2n2nnc3ccc(Cl)cc3c12 | 0.893 | 2.93 | 1.32 | 5.07 | 0.436 | 2.35 µM | 1.35 | 6.19 | 2.57 | 13.2 | 0.331 | 1.33 | 1.54 | 4.75 | 0.98 | 3.86 | 5.73 | 14.5 | 3.59 | 19.6 µM
5 | O=C1/C(=C\c2cccs2)Oc2ccccc21 | – | > 100 | – | > 100 | – | > 100 µM | – | > 100 | – | > 100 | – | > 100 | – | > 100 | – | > 100 | – | > 100 | – | > 100 µM
6 | COc1ccc(N=Cc2ccc(N(CCC#N)CCC#N)cc2)cc1 | – | > 100 | – | > 100 | – | > 100 µM | – | > 100 | – | > 100 | – | > 100 | – | > 100 | – | > 100 | – | > 100 | – | > 100 µM
7 | C=C(CNCCO)[C@@H]1CC[C@]2(CO)CC[C@]3(C)[C@H](CC[C@@H]4[C@@]5(C)CCC(NCCc6ccc(O)cc6)C(C)(C)[C@@H]5CC[C@]43C)[C@@H]12 (stereo partly drawn) | 1.6 | 3.03 | 0.194 | 0.427 | 1.62 | 3.33 µM | 1.18 | 2.63 | 0.278 | 0.717 | 0.468 | 1.85 | 1.39 | 2.92 | 1.44 | 3 | 1.69 | 3.13 | 1.46 | 3.11 µM
8 | N#C/C(=C(\O)C(=O)O)c1ccc(-c2cccc3ccccc23)cc1 | – | > 100 | – | > 100 | – | > 100 µM | – | > 100 | – | > 100 | – | > 100 | – | > 100 | – | > 100 | – | > 100 | – | > 100 µM
9 | Cc1ccc2c(c1)sc(-c1ccc(N(C)C)cc1)[n+]2C | 1.95 | 32 | 0.368 | 1.44 | 8.84 | > 56.2 µM | 1.28 | 21.8 | 0.467 | > 76 | 2.28 | > 66 | 0.397 | 14.6 | 1.58 | > 100 | 0.39 | 1.8 | 0.379 | > 100 µM
10 | O=C1NC(=O)C(c2ccccc2Cl)=C1Nc1cccc(O)c1 | 9.29 | > 25 | 7.17 | > 21.6 | 4.41 | > 25 µM | 15.1 | > 25 | 9.32 | > 25 | 1.47 | > 25 | 2.51 | > 25 | 7.02 | > 25 | 1.67 | > 25 | > 22.5 | > 25 µM
11 | OCCCNCc1ccccn1 | – | > 100 | – | > 100 | – | > 100 µM | – | > 100 | – | > 100 | – | > 100 | – | > 100 | – | > 100 | – | > 100 | – | > 100 µM
12 | CCCCS(=N)(=O)CC[C@H](N)C(=O)O (stereo partly drawn) | > 10000 | > 10000 | > 10000 | > 10000 | > 1080 | 5000 µM and > 1330 µM | 2.12 | – | > 10000 | > 10000 | 3710 | > 10000 | > 10000 | > 10000 | 13.4 | – | > 10000 | > 10000 | 615 | 1720 µM and 3890 µM
